Like-named read-outs stand apart in the source and are kept apart here.
Assays:
E. coli strain MG1655 = test system: E. coli strain MG1655
Method: A similar study was done with log-phase cultures of E. coli grown in a defined medium. E. coli strain MG1655 was allowed to grow overnight in MOPS 0.2% glucose medium (Teknova, Half Moon Bay, Calif.) at 42° C. or 28° C. The following day, the cultures were diluted into fresh medium and allowed to grow at the same temperature until in the log phase of growth. […] To these were added 10 μL of the log phase cultures and the tubes were immediately placed in shaking incubators at 42° C. or 28° C. or left on ice for 30 min. […] Then 5 μL of the undiluted treated cultures were spotted on LB agar plates. Subsequent 10-fold serial dilutions of 10^−3, 10^−4, 10^−5 and 10^−6 of the exposed cultures were done by serial pipetting of 20 μL, starting with the 10^−2 dilution cultures, into 180 μL of LB medium in the microplate, using a multi-channel pipette. Prior to each transfer, the cultures were mixed by pipetting up and down six times. Each dilution (5 μL) was spotted onto an LB plate using a multi-channel pipette and allowed to soak into the plate. The plates were inverted and incubated overnight at 37° C. […] Survival of 0% was recorded when no colonies in the spots of the undiluted or any of the serial dilutions were observed.

[1] = test system: Lactobacillus plantarum PN0512; experiment: Growth of L. plantarum PN0512 in the presence of butanols at different temperatures; assay type: cell-based; design: key to Growth at 37° C. / Growth at 30° C. / Growth at 25° C.: +: growth observed as an increase in OD600.; −: no growth observed, i.e. no change in OD600
Method: Tolerance levels of bacterial strain Lactobacillus plantarum PN0512 (ATCC # PTA-7727) were determined at 25° C., 30° C. and 37° C. as follows. The strain was cultured in S30L medium (i.e., 10 mM ammonium sulfate, 5 mM potassium phosphate buffer, pH 7.0, 50 mM MOPS, pH 7.0, 2 mM MgCl2, 0.7 mM CaCl2, 50 μM MnCl2, 1 μM FeCl3, 1 μM ZnCl2, 1.72 μM CuCl2, 2.53 μM CoCl2, 2.42 μM Na2MoO4, 2 μM thiamine hydrochloride, 10 mM glucose, and 0.2% yeast extract). An overnight culture in the absence of any test compound was started in 15 mL of the S30L medium in a 150 mL flask, with incubation at 37° C. in a shaking water bath. The next morning, the overnight culture was diluted into three 500 mL flasks containing 150 mL of fresh medium to an initial OD600 of about 0.08. Each flask was incubated in a shaking water bath, one each at 25° C., 30° C. and 37° C. Each large culture was allowed to acclimate at the test temperature for at least 0.5 h. […] Growth was followed by measuring OD600 for six hours after addition of the compounds.

[2] = 1.5 % (w/v) 1-butanol, grown at 28° C.
[3] = 1.5 % (w/v) 1-butanol, grown at 42° C.
[4] = 2.0 % (w/v) 1-butanol, grown at 28° C.
[5] = 2.0 % (w/v) 1-butanol, grown at 42° C.
[6] = 3.0 % (w/v) 1-butanol, grown at 28° C.
[7] = 3.0 % (w/v) 1-butanol, grown at 42° C.
[8] = 4.0 % (w/v) 1-butanol, grown at 28° C.
[9] = 4.0 % (w/v) 1-butanol, grown at 42° C.
[10] = […] (w/v) 1-butanol, grown at 42° C.

For 1-butanol, the “% survival after 30 min exposure at 42° C.” value (“% survival … at 42° C.” below) (E. coli strain MG1655; 1.0 % (w/v) 1-butanol, grown at 28° C.) was 100%, the “% survival … at 42° C.” value (E. coli strain MG1655; 1.0 % (w/v) 1-butanol, grown at 42° C.) was 100% and the “% survival after 30 min exposure at 28° C.” value (“% survival … at 28° C.” for short) (E. coli strain MG1655; [2]) was 100%. For the same substance, the “% survival … at 42° C.” value (E. coli strain MG1655; [2]) was 0%, the “% survival … at 28° C.” value (E. coli strain MG1655; [3]) was 100% and the “% survival … at 42° C.” value (E. coli strain MG1655; [3]) was 0%. For the same substance, the “% survival … at 28° C.” value (E. coli strain MG1655; [4]) was 100%, the “% survival … at 42° C.” value (E. coli strain MG1655; [4]) was 0% and the “% survival … at 28° C.” value (E. coli strain MG1655; [5]) was 100%. The “% survival … at 42° C.” value (E. coli strain MG1655; [5]) was 0%, the “% survival … at 28° C.” value (E. coli strain MG1655; [6]) was 0% and the “% survival … at 42° C.” value (E. coli strain MG1655; [6]) was 0%. The “% survival after 30 min exposure at 0° C.” value (from here on “% survival … at 0° C.”) (E. coli strain MG1655; 3.0 % (w/v) 1-butanol, grown at 29° C.) was 100%, the “% survival … at 0° C.” value (E. coli strain MG1655; [7]) was 100% and the “% survival … at 28° C.” value (E. coli strain MG1655; [7]) was 0%. The “% survival … at 42° C.” value (E. coli strain MG1655; [7]) was 0%, the “% survival … at 28° C.” value (E. coli strain MG1655; [8]) was 0% and the “% survival … at 42° C.” value (E. coli strain MG1655; [8]) was 0%. For the same substance, the “% survival … at 0° C.” value (E. coli strain MG1655; 4.0 % (w/v) 1-butanol, grown at 29° C.) was 100%, the “% survival … at 0° C.” value (E. coli strain MG1655; [9]) was 100% and the “% survival … at 28° C.” value (E. coli strain MG1655; [9]) was 0.001%. For the same substance, the “% survival … at 42° C.” value (E. coli strain MG1655; [9]) was 0%, the “% survival … at 0° C.” value (E. coli strain MG1655; 5.0 % (w/v) 1-butanol, grown at 29° C.) was 50% and the “% survival … at 0° C.” value (E. coli strain MG1655; 5.0 % (w/v) 1-butanol, grown at 42° C.) was 10%. For the same substance, the “% survival … at 0° C.” value (E. coli strain MG1655; 6.0 % (w/v) 1-butanol, grown at 29° C.) was 1%, the “% survival … at 0° C.” value (E. coli strain MG1655; 6.0 % (w/v) 1-butanol, grown at 42° C.) was 1% and the “% survival … at 42° C.” value (E. coli strain MG1655; […] (w/v) 1-butanol, grown at 28° C.) was 0%. For the same substance, the “% survival … at 0° C.” value (E. coli strain MG1655; […] (w/v) 1-butanol, grown at 29° C.) was 100%, the “% survival … at 0° C.” value (E. coli strain MG1655; [10]) was 100% and the “% survival … at 42° C.” value (E. coli strain MG1655; [10]) was 0%. The “Growth at 37° C.” value ([1]; 1.0 % w/v 1-butanol) was “+”, the “Growth at 37° C.” value ([1]; 1.2 % w/v 1-butanol) was “+” and the “Growth at 37° C.” value ([1]; 1.4 % w/v 1-butanol) was “+”. The “Growth at 25° C.” value ([1]; 1.5 % w/v 1-butanol) was “+”, the “Growth at 30° C.” value ([1]; 1.5 % w/v 1-butanol) was “+” and the “Growth at 37° C.” value ([1]; 1.5 % w/v 1-butanol) was “+”. The “Growth at 37° C.” value ([1]; 1.6 % w/v 1-butanol) was “+”, the “Growth at 37° C.” value ([1]; 1.8 % w/v 1-butanol) was “+” and the “Growth at 25° C.” value ([1]; 2.0 % w/v 1-butanol) was “+”. The “Growth at 30° C.” value ([1]; 2.0 % w/v 1-butanol) was “+”, the “Growth at 37° C.” value ([1]; 2.0 % w/v 1-butanol) was “+” and the “Growth at 37° C.” value ([1]; 2.1 % w/v 1-butanol) was “+”. The “Growth at 37° C.” value ([1]; 2.2 % w/v 1-butanol) was “+”, the “Growth at 37° C.” value ([1]; 2.3 % w/v 1-butanol) was “+” and the “Growth at 25° C.” value ([1]; 2.4 % w/v 1-butanol) was “+”. For the same substance, the “Growth at 30° C.” value ([1]; 2.4 % w/v 1-butanol) was “+”, the “Growth at 37° C.” value ([1]; 2.4 % w/v 1-butanol) was “−^2” and the “Growth at 30° C.” value ([1]; 2.7 % w/v 1-butanol) was “+”. The “Growth at 37° C.” value ([1]; 2.7 % w/v 1-butanol) was “−”, the “Growth at 25° C.” value ([1]; 2.9 % w/v 1-butanol) was “+” and the “Growth at 30° C.” value ([1]; 2.9 % w/v 1-butanol) was “−”. The “Growth at 37° C.” value ([1]; 2.9 % w/v 1-butanol) was “−”, the “Growth at 25° C.” value ([1]; 3.1 % w/v 1-butanol) was “+” and the “Growth at 30° C.” value ([1]; 3.1 % w/v 1-butanol) was “−”. The “Growth at 37° C.” value ([1]; 3.1 % w/v 1-butanol) was “−”, the “Growth at 25° C.” value ([1]; 3.2 % w/v 1-butanol) was “−” and the “Growth at 30° C.” value ([1]; 3.2 % w/v 1-butanol) was “−”. For the same substance, the “Growth at 25° C.” value ([1]; 3.3 % w/v 1-butanol) was “−”, the “Growth at 25° C.” value ([1]; 3.4 % w/v 1-butanol) was “−” and the “Growth at 30° C.” value ([1]; 3.4 % w/v 1-butanol) was “−”. For the same substance, the “concentration in which growth was observed” value ([1]; 25° C.) was 3.1%, the “concentration in which growth was not observed” value ([1]; 30° C.) was 2.9% and the “concentration in which growth was observed” value ([1]; 30° C.) was 2.7%. For the same substance, the “concentration in which growth was not observed” value ([1]; 37° C.) was 2.4%, the “concentration in which growth was observed” value ([1]; 37° C.) was 2.3% and the “Growth at 37° C.” value ([1]; […] w/v 1-butanol) was “−”.
